Experimental data from patent publication US8614201B2 (Janssen Pharmaceutica NV, priority 2009, dated 2013).

Target: Human TRPA1 (Homo sapiens, UniProt O75762)
Assay: Assay 1: In vitro cellular testing of TRPA1 modulation (CHO-TREx, Fluo-3 calcium fluorescence, AITC agonist)
Format: cell-based
Set-up: expressed in transfected cells; host or cells: CHO-TREx cells (Invitrogen), vector pcDNA4/TO
Conditions: CHO-TREx cells expressing human TRPA1; Fluo-3 fluorescence (FLIPR/Tetra); agonist 15 μM allyl isothiocyanate (AITC); 30 minute antagonist incubation
Outline: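 Tetracycline-induced CHO-TREx cells stably expressing human TRPA1, loaded with 4 μM Fluo-3 AM, preincubated 30 min with compound (serial dilution typically from 10 μM, three-fold steps) in HEPES saline pH 7.4. Fluorescence change over 3 min after 15 μM AITC; IC50 from Hill fit versus no-antagonist and 10 μM ruthenium red controls.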

Sequence of Human TRPA1 (O75762 whole entry): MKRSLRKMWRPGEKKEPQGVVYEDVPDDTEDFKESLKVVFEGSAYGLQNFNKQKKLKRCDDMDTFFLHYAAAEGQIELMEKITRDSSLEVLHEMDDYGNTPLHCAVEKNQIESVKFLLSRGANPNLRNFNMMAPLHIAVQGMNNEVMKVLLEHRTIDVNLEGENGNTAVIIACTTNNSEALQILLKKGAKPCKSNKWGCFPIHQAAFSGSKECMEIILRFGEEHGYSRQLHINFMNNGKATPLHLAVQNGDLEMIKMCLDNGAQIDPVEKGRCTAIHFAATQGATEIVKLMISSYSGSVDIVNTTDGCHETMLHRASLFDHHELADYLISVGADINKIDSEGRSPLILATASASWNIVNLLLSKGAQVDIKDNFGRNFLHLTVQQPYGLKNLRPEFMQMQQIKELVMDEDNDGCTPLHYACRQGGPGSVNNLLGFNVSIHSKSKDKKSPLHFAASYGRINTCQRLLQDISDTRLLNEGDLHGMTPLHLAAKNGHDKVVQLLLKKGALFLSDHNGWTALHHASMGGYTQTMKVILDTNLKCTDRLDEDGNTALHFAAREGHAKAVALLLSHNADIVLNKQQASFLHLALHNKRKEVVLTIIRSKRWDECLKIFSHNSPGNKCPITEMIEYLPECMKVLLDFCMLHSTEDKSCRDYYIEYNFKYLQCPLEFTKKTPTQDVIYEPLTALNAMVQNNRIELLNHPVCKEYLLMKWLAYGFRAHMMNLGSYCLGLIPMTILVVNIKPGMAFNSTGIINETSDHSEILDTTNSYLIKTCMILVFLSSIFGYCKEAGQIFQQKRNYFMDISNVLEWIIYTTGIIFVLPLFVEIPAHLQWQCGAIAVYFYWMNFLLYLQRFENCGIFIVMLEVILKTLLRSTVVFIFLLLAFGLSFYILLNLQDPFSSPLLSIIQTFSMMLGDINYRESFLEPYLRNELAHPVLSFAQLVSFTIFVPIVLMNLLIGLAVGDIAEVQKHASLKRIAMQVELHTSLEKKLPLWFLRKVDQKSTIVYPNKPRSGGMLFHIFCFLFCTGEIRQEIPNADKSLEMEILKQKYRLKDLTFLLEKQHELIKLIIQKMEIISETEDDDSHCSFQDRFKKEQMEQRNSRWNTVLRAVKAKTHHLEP

Compound | IC50 [nM]
O=C(NCc1cc(-c2ccc(OC(F)(F)F)cc2)ncn1)[C@@H]1CCCN1S(=O)(=O)c1ccc(F)cc1 [Example 177, 1-(4-Fluorobenzenesulfonyl)-pyrrolidine-2S-carboxylic acid [6-(4-trifluoromethoxyphenyl)-pyrimidin-4-ylmethyl]-amide] | 71
O=C(NCc1cc(-c2ccc(C(F)(F)F)nc2)ncn1)[C@@H]1CCCN1S(=O)(=O)c1ccc(F)cc1 [Example 178, 1-(4-Fluoro-benzenesulfonyl)-pyrrolidine-2S-carboxylic acid [6-(6-trifluoromethyl-pyridin-3-yl)-pyrimidin-4-ylmethyl]-amide] | 203
O=C(NCc1cc(-c2ccc(C(F)(F)F)cc2)ncn1)[C@@H]1CC(F)(F)CN1S(=O)(=O)c1ccc(F)cc1 [Example 179, (2S)-4,4-Difluoro-1-(4-fluoro-benzenesulfonyl)-pyrrolidine-2-carboxylic acid [6-(4-trifluoromethyl-phenyl)-pyrimidin-4-ylmethyl]-amide] | 229
O=C(NCc1cc(-c2ccc(C(F)(F)F)cc2)ncn1)[C@@H]1CC(F)(F)CN1S(=O)(=O)c1ccc(Cl)s1 [Example 180, (2S)-1-(5-Chloro-thiophene-2-sulfonyl)-4,4-difluoro-pyrrolidine-2-carboxylic acid [6-(4-trifluoromethyl-phenyl)-pyrimidin-4-ylmethyl]-amide] | 228
Cc1nc(CNC(=O)[C@@H]2CCCN2S(=O)(=O)c2ccc(F)cc2)cc(-c2ccc(C(F)(F)F)cc2)n1 [Example 183, 1-(4-Fluoro-benzenesulfonyl)-pyrrolidine-2S-carboxylic acid [2-methyl-6-(4-trifluoromethyl-phenyl)-pyrimidin-4-ylmethyl]-amide] | 20
O=C(NCc1nccc(-c2ccc(C(F)(F)F)cc2)n1)[C@@H]1CCCN1S(=O)(=O)c1ccc(F)cc1 [Example 185, (2S)-1-(4-Fluoro-benzenesulfonyl)-pyrrolidine-2-carboxylic acid [4-(4-trifluoromethyl-phenyl)-pyrimidin-2-ylmethyl]-amide] | 433
O=C(NCc1nccc(-c2ccc(C(F)(F)F)cc2)n1)[C@@H]1CCCN1S(=O)(=O)c1ccc(Cl)s1 [Example 186] | 227
O=C(NCc1ccnc(-c2ccc(C(F)(F)F)cc2)n1)[C@@H]1CCCN1S(=O)(=O)c1ccc(F)cc1 [Example 187, (2S)-1-(4-Fluoro-benzenesulfonyl)-pyrrolidine-2-carboxylic acid [2-(4-trifluoromethyl-phenyl)-pyrimidin-4-ylmethyl]-amide] | 806
O=C(NCc1cc(-c2ccc(C(F)(F)F)cc2)nc(N2CCC(Cc3ccccc3)CC2)n1)[C@@H]1CCCN1S(=O)(=O)c1ccc(F)cc1 [Example 189, 1-(4-Fluoro-benzenesulfonyl)-pyrrolidine-2S-carboxylic acid [2-(4-benzyl-piperidin-1-yl)-6-(4-trifluoromethyl-phenyl)-pyrimidin-4-ylmethyl]-amide] | 2
O=C(NCc1cc(-c2ccc(C(F)(F)F)cc2)nc(NC2CCCC2)n1)[C@@H]1CCCN1S(=O)(=O)c1ccc(F)cc1 [Example 193, 1-(4-Fluoro-benzenesulfonyl)-pyrrolidine-2S-carboxylic acid [2-cyclopentylamino-6-(4-trifluoromethyl-phenyl)-pyrimidin-4-ylmethyl]-amide] | 85
O=C(NCc1cc(-c2ccc(C(F)(F)F)cc2)nc(N2CCCC2)c1)[C@@H]1CCCN1S(=O)(=O)c1ccc(F)cc1 [Example 317, 1-(4-Fluoro-benzenesulfonyl)-pyrrolidine-S2-carboxylic acid [2-pyrrolidin-1-yl-6-(4-trifluoromethyl-phenyl)-pyridin-4-ylmethyl]-amide] | 16
O=C(NCc1cc(-c2ccc(C(F)(F)F)cc2)nc(N2CCCCC2)c1)[C@@H]1CCCN1S(=O)(=O)c1ccc(F)cc1 [Example 318, 1-(4-Fluoro-benzenesulfonyl)-pyrrolidine-S2-carboxylic acid [6′-(4-trifluoromethyl-phenyl)-3,4,5,6-tetrahydro-2H-[1,2′]bipyridinyl-4′-ylmethyl]-amide] | 29
O=C(NCc1cc(-c2ccc(C(F)(F)F)cc2)nc(N2CCCCC2)c1)[C@@H]1CCCN1S(=O)(=O)c1ccc(Cl)s1 [Example 319, 1-(5-Chloro-thiophene-2-sulfonyl)-pyrrolidine-S2-carboxylic acid [6′-(4-trifluoromethyl-phenyl)-3,4,5,6-tetrahydro-2H-[1,2′]bipyridinyl-4′-ylmethyl]-amide] | 21
O=C(NCc1cc(NCc2ccccc2)nc(-c2ccc(C(F)(F)F)cc2)c1)[C@@H]1C=CCN1S(=O)(=O)c1ccc(Cl)s1 [Example 320, (2S)—N-({2-(Benzylamino)-6-[4-(trifluoromethyl)phenyl]pyridin-4-yl}methyl)-1-[(5-chlorothiophen-2-yl)sulfonyl]-2,5-dihydro-1H-pyrrole-2-carboxamide] | 745
O=C(NCc1cc(NCc2ccccc2)nc(-c2ccc(C(F)(F)F)cc2)c1)[C@@H]1C=CCN1S(=O)(=O)c1ccc(F)cc1 [Example 321, (2S)—N-({2-(Benzylamino)-6-[4-(trifluoromethyl)phenyl]pyridin-4-yl}methyl)-1-[(4-fluorophenyl)sulfonyl]-2,5-dihydro-1H-pyrrole-2-carboxamide] | 1020
O=C(NCc1cc(NCc2ccccc2)nc(-c2ccc(C(F)(F)F)cc2)c1)[C@@H]1CCCN1S(=O)(=O)c1ccc(F)cc1 [Example 322, N-({2-(Benzylamino)-6-[4-(trifluoromethyl)phenyl]pyridin-4-yl}methyl)-1-[(4-fluorophenyl)sulfonyl]-L-prolinamide] | 1180
O=C(NCc1cc(NCc2ccccc2)nc(-c2ccc(C(F)(F)F)cc2)c1)[C@@H]1CCCN1S(=O)(=O)c1ccc(Cl)s1 [Example 323, N-({2-(Benzylamino)-6-[4-(trifluoromethyl)phenyl]pyridin-4-yl}methyl)-1-[(5-chlorothiophen-2-yl)sulfonyl]-L-prolinamide] | 510
O=C(NCc1cc(-c2ccc(C(F)(F)F)cc2)nc(N2CCN(c3ccccc3F)CC2)c1)[C@@H]1CCCN1S(=O)(=O)c1ccc(Cl)s1 [Example 324, 1-[(5-Chlorothiophen-2-yl)sulfonyl]-N-({2-[4-(2-fluorophenyl)piperazin-1-yl]-6-[4-(trifluoromethyl)phenyl]pyridin-4-yl}methyl)-L-prolinamide] | 412
O=C(NCc1cc(-c2ccc(C(F)(F)F)cc2)nc(N2CCN(c3ccccc3F)CC2)c1)[C@@H]1CCCN1S(=O)(=O)c1ccc(F)cc1 [Example 325, N-({2-[4-(2-Fluorophenyl)piperazin-1-yl]-6-[4-(trifluoromethyl)phenyl]pyridin-4-yl}methyl)-1-[(4-fluorophenyl)sulfonyl]-L-prolinamide] | 845
O=C(NCc1cc(-c2ccc(C(F)(F)F)cc2)nc(N2CCN(c3ccccc3F)CC2)c1)[C@@H]1C=CCN1S(=O)(=O)c1ccc(F)cc1 [Example 326, (2S)—N-({2-[4-(2-Fluorophenyl)piperazin-1-yl]-6-[4-(trifluoromethyl)phenyl]pyridin-4-yl}methyl)-1-[(4-fluorophenyl)sulfonyl]-2,5-dihydro-1H-pyrrole-2-carboxamide] | 5970
O=C(NCc1cc(-c2ccc(C(F)(F)F)cc2)nc(N2CCN(Cc3ccncc3)CC2)c1)[C@@H]1CCCN1S(=O)(=O)c1ccc(Cl)s1 [Example 327, 1-[(5-Chlorothiophen-2-yl)sulfonyl]-N-({2-[4-(pyridin-4-ylmethyl)piperazin-1-yl]-6-[4-(trifluoromethyl)phenyl]pyridin-4-yl}methyl)-L-prolinamide] | 587
O=C(NCc1cc(-c2ccc(C(F)(F)F)cc2)nc(N2CCN(Cc3cccnc3)CC2)c1)[C@@H]1CCCN1S(=O)(=O)c1ccc(F)cc1 [Example 328, 1-[(4-Fluorophenyl)sulfonyl]-N-({2-[4-(pyridin-3-ylmethyl)piperazin-1-yl]-6-[4-(trifluoromethyl)phenyl]pyridin-4-yl}methyl)-L-prolinamide] | 682
O=C(NCc1cc(-c2ccc(C(F)(F)F)cc2)nc(N2CCN(Cc3ccncc3)CC2)c1)[C@@H]1C=CCN1S(=O)(=O)c1ccc(F)cc1 [Example 329, (2S)-1-[(4-Fluorophenyl)sulfonyl]-N-({2-[4-(pyridin-4-ylmethyl)piperazin-1-yl]-6-[4-(trifluoromethyl)phenyl]pyridin-4-yl}methyl)-2,5-dihydro-1H-pyrrole-2-carboxamide] | 1760
O=C(NCc1cc(NCc2ccccn2)nc(-c2ccc(C(F)(F)F)cc2)c1)[C@@H]1C=CCN1S(=O)(=O)c1ccc(Cl)s1 [Example 330, (2S)-1-[(5-Chlorothiophen-2-yl)sulfonyl]-N-({2-[(pyridin-2-ylmethyl)amino]-6-[4-(trifluoromethyl)phenyl]pyridin-4-yl}methyl)-2,5-dihydro-1H-pyrrole-2-carboxamide] | 604
CN(C)c1cc(CNC(=O)[C@@H]2CCCN2S(=O)(=O)c2ccc(F)cc2)cc(-c2ccc(C(F)(F)F)cc2)n1 [Example 331, N-({2-(Dimethylamino)-6-[4-(trifluoromethyl)phenyl]pyridin-4-yl}methyl)-1-[(4-fluorophenyl)sulfonyl]-L-prolinamide] | 176
CN(C)c1cc(CNC(=O)[C@@H]2CCCN2S(=O)(=O)c2ccc(Cl)s2)cc(-c2ccc(C(F)(F)F)cc2)n1 [Example 332, 1-[(5-Chlorothiophen-2-yl)sulfonyl]-N-({2-(dimethylamino)-6-[4-(trifluoromethyl)phenyl]pyridin-4-yl}methyl)-L-prolinamide] | 58
CC1CCCN1c1cc(CNC(=O)[C@@H]2CCCN2S(=O)(=O)c2ccc(Cl)s2)cc(-c2ccc(C(F)(F)F)cc2)n1 (stereo partly drawn) [Example 333, 1-[(5-Chlorothiophen-2-yl)sulfonyl]-N-({2-(2-methylpyrrolidin-1-yl)-6-[4-(trifluoromethyl)phenyl]pyridin-4-yl}methyl)-L-prolinamide] | 73
